Counter-ions that a name gives are not always drawn.
Assays:
[1] = target: 5-Hydroxytryptamine (Serotonin) Receptor 2B (5-HT2B) (Homo sapiens, UniProt P41595); assay: Calcium flux secondary messenger assay, 5-HT2B; type: cell-based
[2] = target: T1, Norepinephrine transporter (NET) (Homo sapiens, UniProt P23975); assay: Monoamine transporter uptake assay (fluorescent substrate), NET; type: cell-based
T1 construct: expressed in transfected cells

[3] = target: Adenosine Receptor A2A (ADORA2A) (Homo sapiens, UniProt P29274); assay: Calcium flux assay, ADORA2A; type: cell-based
Chain of Adenosine Receptor A2A (ADORA2A) (P29274 whole entry): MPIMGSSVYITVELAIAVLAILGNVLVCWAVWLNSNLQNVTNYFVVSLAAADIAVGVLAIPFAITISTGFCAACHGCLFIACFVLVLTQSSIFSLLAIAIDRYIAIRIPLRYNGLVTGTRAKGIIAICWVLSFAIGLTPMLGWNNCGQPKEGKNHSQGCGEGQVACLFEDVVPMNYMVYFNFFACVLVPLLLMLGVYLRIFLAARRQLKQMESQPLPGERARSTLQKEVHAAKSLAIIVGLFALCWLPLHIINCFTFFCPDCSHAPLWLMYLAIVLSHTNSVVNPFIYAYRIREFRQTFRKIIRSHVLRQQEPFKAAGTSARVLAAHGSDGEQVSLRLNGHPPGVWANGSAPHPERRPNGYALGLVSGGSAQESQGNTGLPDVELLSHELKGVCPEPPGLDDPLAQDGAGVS

[4] = target: Adrenergic Receptor β1 (ADRB1) (Homo sapiens, UniProt P08588); assay: cAMP assay, ADRB1; type: cell-based
Chain of Adrenergic Receptor β1 (ADRB1) (P08588 whole entry): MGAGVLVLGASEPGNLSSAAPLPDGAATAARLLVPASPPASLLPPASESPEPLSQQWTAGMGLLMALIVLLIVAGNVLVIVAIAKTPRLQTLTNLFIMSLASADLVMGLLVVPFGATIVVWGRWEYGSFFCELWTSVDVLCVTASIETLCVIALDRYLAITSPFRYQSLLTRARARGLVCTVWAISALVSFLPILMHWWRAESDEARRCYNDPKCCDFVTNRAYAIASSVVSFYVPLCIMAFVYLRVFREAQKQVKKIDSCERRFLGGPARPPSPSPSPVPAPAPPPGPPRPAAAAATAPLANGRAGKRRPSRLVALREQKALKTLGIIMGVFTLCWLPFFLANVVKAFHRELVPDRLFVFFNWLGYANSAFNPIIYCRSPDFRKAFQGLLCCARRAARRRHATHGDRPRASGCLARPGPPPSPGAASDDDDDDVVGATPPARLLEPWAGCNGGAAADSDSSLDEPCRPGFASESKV

[5] = target: Arginine Vasopressin Receptor 1A (AVPR1A) (Homo sapiens, UniProt P37288); assay: Calcium flux assay, AVPR1A; type: cell-based
[6] = target: T2, Cyclooxygenase 2 (COX2) (Homo sapiens, UniProt P35354); assay: Enzymatic assay, COX2; type: biochemical
T2 construct: purchased BPS Bioscience
T2 sequence (P35354 18-604): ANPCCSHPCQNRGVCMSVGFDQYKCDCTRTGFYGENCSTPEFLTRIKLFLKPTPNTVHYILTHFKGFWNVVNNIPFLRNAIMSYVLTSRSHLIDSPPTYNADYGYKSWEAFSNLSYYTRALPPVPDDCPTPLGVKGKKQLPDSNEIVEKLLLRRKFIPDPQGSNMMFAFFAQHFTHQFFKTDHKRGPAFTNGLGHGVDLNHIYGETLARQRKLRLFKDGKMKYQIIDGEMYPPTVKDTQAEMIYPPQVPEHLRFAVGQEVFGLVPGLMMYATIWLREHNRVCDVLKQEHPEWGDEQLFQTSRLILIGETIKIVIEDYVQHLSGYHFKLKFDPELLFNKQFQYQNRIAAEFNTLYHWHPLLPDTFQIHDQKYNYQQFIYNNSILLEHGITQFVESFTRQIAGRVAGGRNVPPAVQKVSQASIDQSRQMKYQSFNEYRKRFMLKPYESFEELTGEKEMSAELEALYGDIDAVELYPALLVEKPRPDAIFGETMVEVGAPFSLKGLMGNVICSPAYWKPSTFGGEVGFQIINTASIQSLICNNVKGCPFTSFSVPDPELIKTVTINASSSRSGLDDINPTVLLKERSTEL

[7] = target: T3, human 5-HT2A (Homo sapiens, UniProt P28223); assay: 5-HT2A agonist effect measured by HTRF as changes in IP1, HEK-293 cells; type: cell-based; conditions: 3.0E-05 M; control 10 μM serotonin; 30 min at 37° C.; duplicate averaged
T3 construct: expressed in transfected cells; host or cells: HEK-293
T3 sequence (P28223 whole entry, looked up): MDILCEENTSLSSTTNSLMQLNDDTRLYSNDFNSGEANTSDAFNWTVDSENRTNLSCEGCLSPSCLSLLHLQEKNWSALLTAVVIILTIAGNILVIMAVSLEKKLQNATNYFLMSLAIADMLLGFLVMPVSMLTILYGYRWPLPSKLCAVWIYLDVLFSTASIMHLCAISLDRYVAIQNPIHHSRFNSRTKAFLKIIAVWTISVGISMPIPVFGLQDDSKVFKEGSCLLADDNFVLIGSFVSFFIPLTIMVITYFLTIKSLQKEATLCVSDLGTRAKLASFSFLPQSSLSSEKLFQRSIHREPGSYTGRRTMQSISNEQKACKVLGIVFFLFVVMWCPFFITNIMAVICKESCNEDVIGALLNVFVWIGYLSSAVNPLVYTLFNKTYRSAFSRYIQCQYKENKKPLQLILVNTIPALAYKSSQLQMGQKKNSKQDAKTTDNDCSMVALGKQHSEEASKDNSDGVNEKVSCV
Procedure: Potential agonist effects of BK-5F-NM-AMT, BK-5F-NM-AMT, and BK-5F-NM-AMT at 5-HT2A receptors was measured by HTRF as changes in IPl. The effects were measured using human 5-HT2A expressed in HEK-293 cells, based on methods reported in Porter et al. British Journal of Pharmacology, 1999. 128(1), 13-20. Incubation was 30 min at 37° C. 10 μM serotonin was used as a positive control. The tryptamine derivatives were each tested at six concentrations from 3.0E-10 to 3.0E-05 M using log steps. All assays were performed in duplicate with results averaged.

[8] = target: 5-Hydroxytryptamine (Serotonin) Receptor 1B (5-HT1B) (Homo sapiens, UniProt P28222); assay: cAMP secondary messenger assay, 5-HT1B; type: cell-based
Chain of 5-Hydroxytryptamine (Serotonin) Receptor 1B (5-HT1B) (P28222 whole entry): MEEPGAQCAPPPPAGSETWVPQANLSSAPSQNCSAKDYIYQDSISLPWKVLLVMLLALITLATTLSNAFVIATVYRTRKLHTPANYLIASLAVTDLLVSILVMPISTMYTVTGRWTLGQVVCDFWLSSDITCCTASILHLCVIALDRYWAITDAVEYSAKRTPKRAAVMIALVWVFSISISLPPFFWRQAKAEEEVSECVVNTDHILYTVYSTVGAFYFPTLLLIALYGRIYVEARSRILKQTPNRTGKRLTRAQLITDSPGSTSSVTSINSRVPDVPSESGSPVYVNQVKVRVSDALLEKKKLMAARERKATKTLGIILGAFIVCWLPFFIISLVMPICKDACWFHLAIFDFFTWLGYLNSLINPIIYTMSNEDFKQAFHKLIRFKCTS

[9] = target: T4, N-methyl-D-aspartate (NMDA) Glutamate Receptor 1A/2B (NMDAR (1A/2B)) (Homo sapiens, UniProt Q05586+Q13224); assay: Ion channel assay, NMDAR (1A/2B); type: cell-based
T4 construct: expressed in transfected cells
T4 sequence (Q13224 27-1484, other chains not shown): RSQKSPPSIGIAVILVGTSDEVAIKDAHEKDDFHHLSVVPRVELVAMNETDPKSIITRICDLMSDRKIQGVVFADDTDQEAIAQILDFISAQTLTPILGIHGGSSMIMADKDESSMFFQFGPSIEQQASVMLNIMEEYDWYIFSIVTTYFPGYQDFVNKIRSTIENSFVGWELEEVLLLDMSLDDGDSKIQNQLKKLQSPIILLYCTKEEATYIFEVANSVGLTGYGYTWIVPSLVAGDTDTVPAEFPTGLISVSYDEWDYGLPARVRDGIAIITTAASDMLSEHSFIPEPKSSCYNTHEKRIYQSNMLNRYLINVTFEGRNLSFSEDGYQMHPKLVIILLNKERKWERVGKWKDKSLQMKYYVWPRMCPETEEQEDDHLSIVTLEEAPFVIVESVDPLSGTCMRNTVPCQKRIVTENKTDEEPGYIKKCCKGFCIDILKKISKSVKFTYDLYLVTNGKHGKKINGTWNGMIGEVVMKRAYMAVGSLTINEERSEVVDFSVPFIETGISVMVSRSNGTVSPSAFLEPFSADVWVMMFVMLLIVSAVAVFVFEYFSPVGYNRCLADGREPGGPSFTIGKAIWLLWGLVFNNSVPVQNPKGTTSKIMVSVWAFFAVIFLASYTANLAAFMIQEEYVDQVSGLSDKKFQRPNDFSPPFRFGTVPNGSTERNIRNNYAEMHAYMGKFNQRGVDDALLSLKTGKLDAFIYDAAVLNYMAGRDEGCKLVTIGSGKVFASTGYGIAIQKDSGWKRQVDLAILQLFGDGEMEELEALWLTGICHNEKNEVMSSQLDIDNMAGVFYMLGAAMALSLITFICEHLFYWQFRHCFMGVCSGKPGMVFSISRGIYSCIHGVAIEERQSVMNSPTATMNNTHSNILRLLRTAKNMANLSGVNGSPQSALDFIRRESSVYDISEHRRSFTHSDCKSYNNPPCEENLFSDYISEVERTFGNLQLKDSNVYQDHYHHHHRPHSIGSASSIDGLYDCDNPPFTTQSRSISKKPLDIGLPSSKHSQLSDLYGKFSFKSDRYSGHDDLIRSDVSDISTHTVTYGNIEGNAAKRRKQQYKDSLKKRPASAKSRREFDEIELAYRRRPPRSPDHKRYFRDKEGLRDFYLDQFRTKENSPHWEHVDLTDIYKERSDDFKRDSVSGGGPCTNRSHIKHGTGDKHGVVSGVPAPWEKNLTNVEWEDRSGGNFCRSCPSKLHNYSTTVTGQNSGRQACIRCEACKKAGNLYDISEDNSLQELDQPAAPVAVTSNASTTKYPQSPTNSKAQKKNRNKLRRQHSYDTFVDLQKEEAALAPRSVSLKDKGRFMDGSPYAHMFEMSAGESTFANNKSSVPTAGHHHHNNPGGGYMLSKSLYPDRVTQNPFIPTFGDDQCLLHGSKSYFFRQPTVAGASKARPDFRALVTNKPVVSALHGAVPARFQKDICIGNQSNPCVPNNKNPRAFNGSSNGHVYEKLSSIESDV

[10] = target: Opioid Receptor Mu (OPRM1) (Homo sapiens, UniProt P35372); assay: cell-based
Chain of Opioid Receptor Mu (OPRM1) (P35372 whole entry): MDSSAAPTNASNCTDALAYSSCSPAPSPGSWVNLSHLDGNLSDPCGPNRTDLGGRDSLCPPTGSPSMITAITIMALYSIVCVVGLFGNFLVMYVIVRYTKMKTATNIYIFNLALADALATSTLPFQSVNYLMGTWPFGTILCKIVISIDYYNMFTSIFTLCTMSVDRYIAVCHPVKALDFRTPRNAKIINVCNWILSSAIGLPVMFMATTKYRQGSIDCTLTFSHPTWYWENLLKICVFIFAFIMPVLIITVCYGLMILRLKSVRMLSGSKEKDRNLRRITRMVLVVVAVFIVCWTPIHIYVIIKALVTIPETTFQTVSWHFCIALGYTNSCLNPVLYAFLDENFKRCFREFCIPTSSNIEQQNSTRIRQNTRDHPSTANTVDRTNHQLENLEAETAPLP

[11] = target: T5, KvLQT1/minK (Homo sapiens, UniProt P15382+P51787); assay: Ion channel assay, KvLQT1/minK; type: cell-based
T5 construct: expressed in transfected cells
T5 sequence (P51787 whole entry): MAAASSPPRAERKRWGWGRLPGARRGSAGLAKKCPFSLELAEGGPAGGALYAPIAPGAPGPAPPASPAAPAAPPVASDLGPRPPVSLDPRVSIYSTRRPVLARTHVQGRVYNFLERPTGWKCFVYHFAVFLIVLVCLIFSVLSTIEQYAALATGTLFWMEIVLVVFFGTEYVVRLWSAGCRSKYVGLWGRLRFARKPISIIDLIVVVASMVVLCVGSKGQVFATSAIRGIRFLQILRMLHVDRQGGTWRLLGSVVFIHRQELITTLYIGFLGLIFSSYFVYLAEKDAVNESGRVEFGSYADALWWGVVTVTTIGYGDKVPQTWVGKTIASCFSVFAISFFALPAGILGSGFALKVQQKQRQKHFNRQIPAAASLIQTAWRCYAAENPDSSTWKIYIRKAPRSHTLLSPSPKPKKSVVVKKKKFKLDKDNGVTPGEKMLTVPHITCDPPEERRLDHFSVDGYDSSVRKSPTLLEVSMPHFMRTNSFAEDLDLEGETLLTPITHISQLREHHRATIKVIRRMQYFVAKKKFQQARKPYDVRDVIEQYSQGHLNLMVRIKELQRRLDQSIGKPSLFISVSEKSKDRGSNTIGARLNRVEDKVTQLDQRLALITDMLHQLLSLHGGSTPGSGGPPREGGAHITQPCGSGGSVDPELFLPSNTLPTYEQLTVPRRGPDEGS

[12] = tested on: MDMA-trained rats; assay: Drug discrimination in rats trained to distinguish MDMA from placebo; type: in vivo; conditions: 1, 2, and 4 mg/kg intraperitoneal

Chain of 5-Hydroxytryptamine (Serotonin) Receptor 2B (5-HT2B) (P41595 whole entry): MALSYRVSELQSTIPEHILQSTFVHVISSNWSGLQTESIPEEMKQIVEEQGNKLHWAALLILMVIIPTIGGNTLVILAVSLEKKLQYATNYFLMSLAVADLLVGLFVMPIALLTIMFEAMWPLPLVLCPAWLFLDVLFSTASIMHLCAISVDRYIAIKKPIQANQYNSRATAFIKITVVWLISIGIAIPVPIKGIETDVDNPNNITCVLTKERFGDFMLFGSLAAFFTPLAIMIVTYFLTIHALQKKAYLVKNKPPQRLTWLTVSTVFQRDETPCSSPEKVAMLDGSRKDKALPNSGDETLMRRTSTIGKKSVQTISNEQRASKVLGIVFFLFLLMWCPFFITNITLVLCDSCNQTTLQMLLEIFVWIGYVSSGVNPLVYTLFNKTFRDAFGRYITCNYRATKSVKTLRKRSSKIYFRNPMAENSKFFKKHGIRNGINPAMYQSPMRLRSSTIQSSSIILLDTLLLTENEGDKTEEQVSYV

CNC(C)C(=O)c1c[nH]c2ccc(Br)cc12 (centres unmarked) [BK-5Br-NM-AMT, 1-(5-bromo-1H-indol-3-yl)-2-(methylamino) propan-1-one hydrochloride] was tested, and the EC50 [1] was > 10 µM, the IC50 [1] was 0.0447 µM and the IC50 [2] was > 10 µM. The EC50 [3] was > 10 µM, the IC50 [3] was > 10 µM and the EC50 [4] was > 10 µM. The IC50 [4] was > 10 µM, the EC50 [5] was > 10 µM and the IC50 [5] was > 10 µM. For the same molecule, the IC50 [6] was > 10 µM, the “Signal changes at the highest tested concentration” value (shortened to “Signal changes”) [7] was −1.1 % of control and the EC50 [8] was > 10 µM. For the same molecule, the IC50 [8] was > 10 µM, the EC50 [9] was > 10 µM and the IC50 [9] was > 10 µM. The EC50 [10] was > 10 µM, the IC50 [10] was > 10 µM and the EC50 [11] was > 10 µM. The IC50 [11] was > 10 µM.
In the case of CNC(C)C(=O)c1c[nH]c2ccc(Cl)cc12 (centres unmarked) [BK-5Cl-NM-AMT, 1-(5-chloro-1H-indol-3-yl)-2-(methylamino) propan-1-one hydrochloride], the EC50 [1] is reported as > 10 µM, the IC50 [1] is reported as 0.0921 µM and the IC50 [2] is reported as > 10 µM. The EC50 [3] was > 10 µM, the IC50 [3] was > 10 µM and the EC50 [4] was > 10 µM. The IC50 [4] was > 10 µM, the EC50 [5] was > 10 µM and the IC50 [5] was > 10 µM. For the same molecule, the IC50 [6] was > 10 µM, the “Signal changes” value [7] was 1.3 % of control and the EC50 [8] was > 10 µM. For the same molecule, the IC50 [8] was > 10 µM, the EC50 [9] was > 10 µM and the IC50 [9] was > 10 µM. The EC50 [10] was > 10 µM, the IC50 [10] was > 10 µM and the EC50 [11] was > 10 µM. The IC50 [11] was > 10 µM.
For CNC(C)C(=O)c1c[nH]c2ccc(F)cc12 (centres unmarked) [BK-5F-NM-AMT, 1-(5-Fluoro-1H-indol-3-yl)-2-(methylamino) propan-1-one hydrochloride], the EC50 [1] was > 10 µM, the IC50 [1] was 0.587 µM and the IC50 [2] was > 10 µM. For the same molecule, the “percent responses on the MDMA-associated lever” value ([12]; 30 min prior to test, four MDMA-trained rats) was “significantly and dose-dependently different from those of MDMA”, the “rate of lever pressing (responses per second)” value ([12]; control measure) was “not altered” and the EC50 [3] was > 10 µM. For the same molecule, the IC50 [3] was > 10 µM, the EC50 [4] was > 10 µM and the IC50 [4] was > 10 µM. The EC50 [5] was > 10 µM, the IC50 [5] was > 10 µM and the IC50 [6] was > 10 µM. The “Signal changes” value [7] was −0.8 % of control, the EC50 [8] was > 10 µM and the IC50 [8] was > 10 µM. For the same molecule, the EC50 [9] was > 10 µM, the IC50 [9] was > 10 µM and the EC50 [10] was > 10 µM. The IC50 [10] was > 10 µM, the EC50 [11] was > 10 µM and the IC50 [11] was > 10 µM.

Source: patent US20230257347A1 (priority 2020, published 2023)
